Reference: PubChem BioAssay (NCI)
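1) Cells in 96-well plates. 2) Compound, 48 h, 5 concentrations. 3) Linear interpolation between surrounding doses. 4) Unreached endpoint = highest concentration. GI50 is the concentration that inhibits growth by half. TGI is the concentration that stops growth completely.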

Legend:
Experiment in all cases: inhibition of tumour cell growth, NCI panel, 48 h; in the data active = GI50 below about 0.43 µM; inactive = the rest
[1] = test system: 786-0 renal
[2] = test system: A498 renal
[3] = test system: A549 NSCLC
[4] = test system: BT-549 breast
[5] = test system: CAKI-1 renal
[6] = test system: CCRF-CEM leukemia
[7] = test system: COLO 205 colon
[8] = test system: DU-145 prostate
[9] = test system: EKVX NSCLC
[10] = test system: HCT-116 colon
[11] = test system: HL-60(TB) leukemia
[12] = test system: HOP-62 NSCLC
[13] = test system: HOP-92 NSCLC
[14] = test system: HS 578T breast
[15] = test system: HT29 colon
[16] = test system: IGROV1 ovarian
[17] = test system: KM12 colon
[18] = test system: M14 melanoma
[19] = test system: MALME-3M melanoma
[20] = test system: MCF7 breast
[21] = test system: MDA-MB-231 breast
[22] = test system: MDA-MB-435
[23] = test system: MOLT-4 leukemia
[24] = test system: NCI-H226 lung
[25] = test system: NCI-H23 lung
[26] = test system: NCI-H460 lung
[27] = test system: NCI-H522 lung
[28] = test system: NCI/ADR-RES ovarian
[29] = test system: OVCAR-3 ovarian
[30] = test system: OVCAR-4 ovarian
[31] = test system: OVCAR-5 ovarian
[32] = test system: OVCAR-8 ovarian
[33] = test system: PC-3 prostate
[34] = test system: RPMI-8226 leukemia
[35] = test system: RXF 393 renal
[36] = test system: SF-268 CNS
[37] = test system: SF-295 CNS
[38] = test system: SF-539 CNS
[39] = test system: SK-MEL-2 melanoma
[40] = test system: SK-MEL-28 melanoma
[41] = test system: SK-MEL-5 melanoma
[42] = test system: SK-OV-3 ovarian
[43] = test system: SNB-19 CNS
[44] = test system: SW-620 colon
[45] = test system: T-47D breast
[46] = test system: TK-10 renal
[47] = test system: UACC-257 melanoma
[48] = test system: UACC-62 melanoma
[49] = test system: UO-31 renal

CCCCC#Cc1cccc(=O)o1
> 100 µM: TGI [1] | TGI [3] | TGI [4] | TGI [5] | TGI [6] | TGI [8] | TGI [9] | TGI [11] | TGI [12] | TGI [13] | TGI [14] | TGI [15] | TGI [16] | TGI [17] | TGI [18] | TGI [19] | TGI [20] | TGI [21] | TGI [22] | TGI [23] | TGI [24] | TGI [25] | TGI [26] | TGI [27] | TGI [28] | TGI [29] | TGI [30] | TGI [31] | TGI [32] | TGI [33] | TGI [35] | TGI [36] | TGI [37] | TGI [38] | TGI [39] | TGI [40] | TGI [42] | TGI [43] | TGI [44] | TGI [45] | TGI [46] | TGI [47] | TGI [48] | TGI [49]
30.4 µM: TGI [10]
5.3 µM: TGI [7]
49.9 µM: TGI [34]
26.6 µM: TGI [41]
inactive: GI50 [1] > 100 µM | GI50 [2] 9.83 µM | GI50 [3] 45.6 µM | GI50 [4] > 100 µM | GI50 [5] > 100 µM | GI50 [6] 20.3 µM | GI50 [7] 2.23 µM | GI50 [8] 29.5 µM | GI50 [9] 12.4 µM | GI50 [10] 5.34 µM | GI50 [11] 1.86 µM | GI50 [12] > 100 µM | GI50 [13] 15.3 µM | GI50 [14] > 100 µM | GI50 [15] 7.03 µM | GI50 [16] 79.5 µM | GI50 [17] 37.1 µM | GI50 [18] 4.5 µM | GI50 [19] 57.4 µM | GI50 [20] 8.9 µM | GI50 [21] 6.43 µM | GI50 [22] 15 µM | GI50 [23] 3.62 µM | GI50 [24] > 100 µM | GI50 [25] 8.98 µM | GI50 [26] 36.2 µM | GI50 [27] 7.16 µM | GI50 [28] 9.46 µM | GI50 [29] 5.23 µM | GI50 [30] > 100 µM | GI50 [31] > 100 µM | GI50 [32] > 100 µM | GI50 [33] 25.7 µM | GI50 [34] 2.03 µM | GI50 [35] 44.3 µM | GI50 [36] > 100 µM | GI50 [37] > 100 µM | GI50 [38] > 100 µM | GI50 [39] 20.8 µM | GI50 [40] 18.3 µM | GI50 [41] 3.71 µM | GI50 [42] > 100 µM | GI50 [43] > 100 µM | GI50 [44] 22.5 µM | GI50 [45] 29.2 µM | GI50 [46] > 100 µM | GI50 [47] 30.9 µM | GI50 [48] 30 µM | GI50 [49] 20.8 µM
66.1 µM: TGI [2]
